Measured values as given in paper PMC12155096 (International Journal of Molecular Sciences, 2025).
Read-outs that look alike come from different tables or passages of the source.

Columns and labels:
[1] = molecular target: Photinus pyralis (firefly) luciferase (Photinus pyralis, UniProt P08659); assay: biochemical; format: biochemical
human CYP1A2 = molecular target: T1, human CYP1A2 (Homo sapiens, UniProt P05177)
T1 sequence (P05177 1-516): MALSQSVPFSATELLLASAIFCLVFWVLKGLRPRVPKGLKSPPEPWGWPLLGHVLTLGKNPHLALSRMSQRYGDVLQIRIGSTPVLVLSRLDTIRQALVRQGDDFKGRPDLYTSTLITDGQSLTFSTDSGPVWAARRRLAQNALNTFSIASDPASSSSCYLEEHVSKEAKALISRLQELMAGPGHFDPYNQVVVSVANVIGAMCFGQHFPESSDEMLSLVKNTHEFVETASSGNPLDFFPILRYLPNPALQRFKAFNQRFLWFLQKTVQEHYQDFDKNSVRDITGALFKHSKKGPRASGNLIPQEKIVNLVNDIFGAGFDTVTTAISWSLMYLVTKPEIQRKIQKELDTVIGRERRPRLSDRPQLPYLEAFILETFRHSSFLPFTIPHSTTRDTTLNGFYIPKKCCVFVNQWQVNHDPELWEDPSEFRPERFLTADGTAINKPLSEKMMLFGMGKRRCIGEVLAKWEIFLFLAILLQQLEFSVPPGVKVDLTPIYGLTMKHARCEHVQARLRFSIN

human CYP2C9 = human CYP2C9 (Homo sapiens, UniProt P11712)
human CYP2C9, sequence (P11712 whole entry): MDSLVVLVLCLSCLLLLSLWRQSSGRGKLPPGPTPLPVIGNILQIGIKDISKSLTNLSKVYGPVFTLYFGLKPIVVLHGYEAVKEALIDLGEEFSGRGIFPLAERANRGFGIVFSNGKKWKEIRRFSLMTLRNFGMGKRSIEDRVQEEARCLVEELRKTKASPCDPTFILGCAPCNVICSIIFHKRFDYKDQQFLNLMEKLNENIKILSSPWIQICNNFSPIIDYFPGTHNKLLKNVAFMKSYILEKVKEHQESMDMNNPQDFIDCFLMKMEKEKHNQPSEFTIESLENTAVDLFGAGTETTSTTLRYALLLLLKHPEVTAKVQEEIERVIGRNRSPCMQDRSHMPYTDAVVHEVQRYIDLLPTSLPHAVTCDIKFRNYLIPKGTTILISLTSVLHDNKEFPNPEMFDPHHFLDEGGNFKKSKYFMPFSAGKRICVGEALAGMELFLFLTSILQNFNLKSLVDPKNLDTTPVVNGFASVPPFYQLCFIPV

human CYP2C19 = human CYP2C19 (Homo sapiens, UniProt P33261)
human CYP2C19, sequence (P33261 whole entry): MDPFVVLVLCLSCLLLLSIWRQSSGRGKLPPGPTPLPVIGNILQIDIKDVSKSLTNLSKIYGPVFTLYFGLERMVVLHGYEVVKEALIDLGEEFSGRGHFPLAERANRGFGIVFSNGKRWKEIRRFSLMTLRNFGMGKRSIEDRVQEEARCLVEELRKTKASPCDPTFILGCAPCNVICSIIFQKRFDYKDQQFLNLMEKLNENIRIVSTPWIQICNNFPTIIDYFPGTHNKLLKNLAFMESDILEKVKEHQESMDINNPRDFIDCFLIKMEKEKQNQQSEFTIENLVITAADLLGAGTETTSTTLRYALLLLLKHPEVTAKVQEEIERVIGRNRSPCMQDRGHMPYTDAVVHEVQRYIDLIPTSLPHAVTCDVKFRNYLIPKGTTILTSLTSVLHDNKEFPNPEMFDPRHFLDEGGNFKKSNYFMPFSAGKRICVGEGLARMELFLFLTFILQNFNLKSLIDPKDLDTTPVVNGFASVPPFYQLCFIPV

human CYP2D6 = human CYP2D6 (Homo sapiens, UniProt P10635)
human CYP2D6, sequence (P10635 whole entry): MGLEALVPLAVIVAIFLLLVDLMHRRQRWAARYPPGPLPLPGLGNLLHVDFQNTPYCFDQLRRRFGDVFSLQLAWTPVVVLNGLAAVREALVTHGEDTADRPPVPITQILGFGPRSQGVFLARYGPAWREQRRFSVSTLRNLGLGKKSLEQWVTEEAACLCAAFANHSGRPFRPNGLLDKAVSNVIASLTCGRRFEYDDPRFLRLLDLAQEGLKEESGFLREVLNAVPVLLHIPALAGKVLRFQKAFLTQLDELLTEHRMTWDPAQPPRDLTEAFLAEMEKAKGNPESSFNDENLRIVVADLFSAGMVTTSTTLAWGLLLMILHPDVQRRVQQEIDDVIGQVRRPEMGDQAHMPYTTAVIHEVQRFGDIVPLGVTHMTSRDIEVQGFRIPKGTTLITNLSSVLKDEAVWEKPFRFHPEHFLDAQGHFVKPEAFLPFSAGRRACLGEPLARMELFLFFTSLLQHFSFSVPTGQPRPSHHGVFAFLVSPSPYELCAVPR

CYP3A4 = CYP3A4 (Homo sapiens, UniProt P08684)
CYP3A4, sequence (P08684 whole entry): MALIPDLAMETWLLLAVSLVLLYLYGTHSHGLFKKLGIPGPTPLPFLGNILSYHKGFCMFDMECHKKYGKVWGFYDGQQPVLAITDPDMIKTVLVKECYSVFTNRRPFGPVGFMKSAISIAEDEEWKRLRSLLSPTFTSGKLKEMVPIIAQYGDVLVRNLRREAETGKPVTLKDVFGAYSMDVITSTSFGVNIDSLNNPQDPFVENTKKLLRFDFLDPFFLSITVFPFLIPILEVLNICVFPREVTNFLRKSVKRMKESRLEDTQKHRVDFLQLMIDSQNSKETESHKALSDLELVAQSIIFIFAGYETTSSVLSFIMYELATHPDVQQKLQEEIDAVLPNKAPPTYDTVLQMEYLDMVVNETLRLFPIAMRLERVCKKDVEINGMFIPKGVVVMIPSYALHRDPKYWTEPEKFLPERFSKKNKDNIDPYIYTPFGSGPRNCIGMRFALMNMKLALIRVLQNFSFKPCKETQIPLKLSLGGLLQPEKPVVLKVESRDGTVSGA

[2] = read-out: Luciferase IC50 (half-maximal inhibitory concentration)

Photinus pyralis (firefly) luciferase, sequence (P08659 whole entry): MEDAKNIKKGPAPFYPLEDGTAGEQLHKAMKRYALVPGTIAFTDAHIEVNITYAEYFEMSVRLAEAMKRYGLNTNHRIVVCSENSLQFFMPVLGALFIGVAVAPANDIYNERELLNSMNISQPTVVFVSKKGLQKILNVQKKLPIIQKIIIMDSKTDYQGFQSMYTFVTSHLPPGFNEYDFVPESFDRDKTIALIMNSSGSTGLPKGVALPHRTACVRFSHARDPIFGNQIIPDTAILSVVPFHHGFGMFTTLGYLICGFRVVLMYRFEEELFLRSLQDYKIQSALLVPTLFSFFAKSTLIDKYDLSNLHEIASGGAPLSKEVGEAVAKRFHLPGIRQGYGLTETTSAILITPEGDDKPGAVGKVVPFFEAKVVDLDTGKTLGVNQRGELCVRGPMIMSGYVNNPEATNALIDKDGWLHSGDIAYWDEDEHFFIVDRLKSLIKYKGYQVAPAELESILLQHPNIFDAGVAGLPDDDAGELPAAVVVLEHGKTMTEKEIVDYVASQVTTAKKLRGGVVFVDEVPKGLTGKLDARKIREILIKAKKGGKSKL

| SMILES | Luciferase IC50 (half-maximal inhibitory concentration) [1] | IC50 (human CYP1A2) | IC50 (human CYP2C9) | IC50 (human CYP2C19) | IC50 (human CYP2D6) | IC50 (CYP3A4) | also measured |
| --- | --- | --- | --- | --- | --- | --- | --- |
| CC(C)(C)c1cc(CCC(=O)NN)cc(C(C)(C)C)c1O | Inactive | 6.97 µM | 5.92 µM | 5.4 µM | 34.3 µM | 0.14 µM | CYP1A2 Efficacy (in parenthesis) (human CYP1A2): 6.97 ± 1.74 (-102 ± 5) %; CYP2C9 Efficacy (in parenthesis) (human CYP2C9): 5.92 ± 1.06 (-98 ± 3) %; CYP2C19 Efficacy (in parenthesis) (human CYP2C19): 5.4 ± 1.6 (-136 ± 2) %; CYP2D6 Efficacy (in parenthesis) (human CYP2D6): 34.28 ± 2.23 (-95 ± 1) %; CYP3A4 Efficacy (in parenthesis) (CYP3A4): 0.14 ± 0.02 (-94 ± 4) % |
| CCN(CC)CCOc1ccc(Cc2ccccc2)cc1.Cl [Tesmilifene hydrochloride] | Inactive |  |  | 0.43 µM | 12.1 µM |  | CYP1A2 IC50 (half-maximal inhibitory concentration) (human CYP1A2): Inactive; CYP2C9 IC50 (half-maximal inhibitory concentration) (human CYP2C9): Inactive; AC50 (human CYP2C19): 0.43 µM; AC50 (human CYP2D6): 12.1 µM; AC50 (CYP3A4): 14.2 µM; CYP3A4 IC50 (half-maximal inhibitory concentration) (CYP3A4): 14.21 ± 3.96 (44 ± 9) µM |
| CC(=O)/C=C/c1ccc2c(c1)OCO2 [Piperonal acetone] |  | 0.25 µM |  | 14.5 µM |  | 4.65 µM | IC50 [1, 2]: 40.3 µM; CYP2C9 Efficacy (human CYP2C9): 8.04 ± 0.92 (-118 ± 10) %; CYP2D6 Efficacy (human CYP2D6): 31 ± 5.28 (-103 ± 9) % |
| Cc1cc(-c2cc(C)c(N)c(C)c2)cc(C)c1N [3,3',5,5'-Tetramethylbenzidine] |  | 0.24 µM | 21.2 µM | 12.1 µM | 16.2 µM | 28.1 µM | Luciferase IC50 [1]: Inactive |
| CC(=O)O.CC(C)c1ccc2c(c1)CC[C@H]1[C@](C)(CN)CCC[C@]21C [Dehydroabietylamine acetate] | Inactive | 38.6 µM | 42.2 µM | 15 µM | 1.51 µM | 0.41 µM | CYP1A2 Efficacy (in parenthesis) (human CYP1A2): 38.64 ± 5.32 (-53 ± 5) %; CYP2C9 Efficacy (in parenthesis) (human CYP2C9): 42.19 ± 26.12 (-70 ± 20) %; CYP2C19 Efficacy (in parenthesis) (human CYP2C19): 14.98 ± 6.91 (-121 ± 11) %; CYP2D6 Efficacy (in parenthesis) (human CYP2D6): 1.51 ± 0.43 (-90 ± 10) %; CYP3A4 Efficacy (in parenthesis) (CYP3A4): 0.41 ± 0.13 (-82 ± 3) % |
| CCOc1cc(OCC)c(C(C)=O)cc1OCC [2,4,5-Triethoxyacetophenone] | Inactive | 0.87 µM |  | 65 µM | 69.8 µM | 58.5 µM | CYP2C9 Efficacy (human CYP2C9): 37.98 ± 5.23 (-54 ± 11) % |
| COc1cc2c(cc1N)oc1ccccc12 [2-Methoxy-3-aminodibenzofuran] |  | 0.63 µM | 6.23 µM | 3.95 µM | 7.61 µM | 8.5 µM | IC50 [1, 2]: 54.6 µM |
| CCOP(=O)([O-])OCC.CCn1cc[n+](C)c1 |  | 79 µM | 58.2 µM | 68.4 µM | 0.61 µM | 45 µM | Luciferase Efficacy (in parenthesis) [1]: 86.36 ± 7.02 (-39 ± 30) %; IC50 [1, 2]: 86.4 µM; CYP1A2 Efficacy (in parenthesis) (human CYP1A2): 78.99 ± 0 (-105 ± 5) %; CYP2C9 Efficacy (in parenthesis) (human CYP2C9): 58.2 ± 3.94 (-117 ± 2) %; CYP2C19 Efficacy (in parenthesis) (human CYP2C19): 68.44 ± 11.66 (-161 ± 32) %; CYP2D6 Efficacy (in parenthesis) (human CYP2D6): 0.61 ± 0.29 (-97 ± 6) %; CYP3A4 Efficacy (in parenthesis) (CYP3A4): 45.03 ± 9.43 (-76 ± 7) % |
| Cc1cccc2c1cc1ccc3cccc4ccc2c1c34 [7-Methylbenzo(a)pyrene] |  | 0.16 µM |  |  |  |  | Luciferase IC50 [1]: Inactive; AC50 (human CYP1A2): 0.16 µM; CYP2C9 IC50 (human CYP2C9): Inactive; CYP2C19 IC50 (human CYP2C19): Inactive; CYP2D6 IC50 (human CYP2D6): Inactive; AC50 (CYP3A4): 73 µM; CYP3A4 IC50 (CYP3A4): 72.98 ± 8.39 (145 ± 22) µM |
| CNC(C)Cc1ccc2c(c1)OCO2.Cl (stereo not shown) | Inactive |  |  |  | 0.4 µM |  | CYP1A2 IC50 (half-maximal inhibitory concentration) (human CYP1A2): Inactive; CYP2C9 IC50 (half-maximal inhibitory concentration) (human CYP2C9): Inactive; CYP2C19 IC50 (half-maximal inhibitory concentration) (human CYP2C19): Inactive; CYP3A4 IC50 (half-maximal inhibitory concentration) (CYP3A4): Inactive |
| CCCCCCCC[P+](CCCCCCCC)(CCCCCCCC)CCCCCCCC.[Br-] [Tetraoctylphosphonium bromide] |  | 57.7 µM | 23.2 µM | 14 µM | 0.75 µM | 1.73 µM | IC50 ([1]; read-out: Luciferase IC50): 65.5 µM |
| [Cl][Hg][Cl] [Mercuric chloride] |  | 5.66 µM | 0.47 µM | 0.77 µM | 1.61 µM | 2.25 µM | IC50 ([1]; read-out: Luciferase IC50): 11 µM |
| CCCCCCCCCCCCCCCCCC[N+](C)(C)Cc1ccccc1.[Cl-] |  |  |  |  |  | 45.9 µM | IC50 ([1]; read-out: Luciferase IC50): 87 µM; CYP1A2 Efficacy (human CYP1A2): 80.42 ± 0 (-111 ± 16) %; CYP2C9 Efficacy (human CYP2C9): 38.84 ± 2.53 (-102 ± 5) %; CYP2C19 Efficacy (human CYP2C19): 48.63 ± 14.39 (-147 ± 23) %; CYP2D6 Efficacy (human CYP2D6): 0.67 ± 0.43 (-99 ± 3) % |
| NNc1nc(-c2ccccc2)cs1 [2-Hydrazino-4-phenylthiazole] |  | 0.75 µM | 8.86 µM | 8.06 µM | 53.2 µM | 14 µM | IC50 ([1]; read-out: Luciferase IC50): 33.9 µM |
| C=CCOC(=O)c1ccc(C(=O)OCC=C)c(C(=O)OCC=C)c1 [Triallyl trimellitate] | Inactive | 5.66 µM | 0.33 µM | 0.15 µM | 46.2 µM | 1.5 µM |  |
| Cc1cc(N=Nc2ccccc2C)ccc1N [2-Amino-5-azotoluene] |  | 0.99 µM |  | 6.21 µM | 45.4 µM | 2.53 µM | IC50 ([1]; read-out: Luciferase IC50): 5.66 µM; CYP2C9 Efficacy (human CYP2C9): 5.45 ± 1.48 (-102 ± 10) % |
| Cl.Clc1ccc(C(OCCN2CCCCC2)c2ccccc2)cc1 (stereo not shown) [Cloperastine hydrochloride] |  | 22.5 µM |  | 18.5 µM | 0.17 µM | 4.43 µM | Luciferase IC50 [1]: Inactive; CYP2C9 IC50 (human CYP2C9): Inactive |
| COC(=O)c1c(C)cc(O)c(C)c1O | Inactive | 0.24 µM | 50.2 µM |  | 33 µM | 53.2 µM | CYP2C19 Efficacy (human CYP2C19): 6.41 ± 1.34 (-140 ± 12) % |
| CC(C)CC(N(C)C)C1(c2ccc(Cl)cc2)CCC1.Cl (stereo not shown) [Sibutramine hydrochloride] | Inactive |  |  | 8.47 µM | 4.24 µM | 0.94 µM | CYP1A2 IC50 (half-maximal inhibitory concentration) (human CYP1A2): Inactive; CYP2C9 IC50 (half-maximal inhibitory concentration) (human CYP2C9): Inactive; CYP2C19 Efficacy (in parenthesis) (human CYP2C19): 8.47 ± 1.44 (-127 ± 8) %; CYP2D6 Efficacy (in parenthesis) (human CYP2D6): 4.24 ± 0.72 (-88 ± 6) %; CYP3A4 Efficacy (in parenthesis) (CYP3A4): 0.94 ± 0.06 (-73 ± 3) % |
| COC(=O)c1cc(Cl)ccc1NS(=O)(=O)C(F)(F)F [Amidoflumet] | Inactive | 0.91 µM |  |  |  |  | CYP2C9 IC50 (half-maximal inhibitory concentration) (human CYP2C9): Inactive; CYP2C19 IC50 (half-maximal inhibitory concentration) (human CYP2C19): Inactive; CYP2D6 IC50 (half-maximal inhibitory concentration) (human CYP2D6): Inactive; CYP3A4 IC50 (half-maximal inhibitory concentration) (CYP3A4): Inactive |
| CC[C@H]1C[C@@H]2C[C@H]3c4[nH]c5ccc(OC)cc5c4CCN(C2)[C@@H]13.Cl [Ibogaine hydrochloride] | Inactive | 61.5 µM |  | 83.1 µM |  | 32.5 µM | CYP2C9 Efficacy (human CYP2C9): 44.07 ± 15.72 (-45 ± 10) %; CYP2D6 Efficacy (human CYP2D6): 0.76 ± 0.1 (-105 ± 7) % |
| CC(=O)OC1(c2ccccc2)CCN(CCc2ccccc2)CC1 | Inactive |  | 53.2 µM | 36.6 µM | 0.57 µM |  | CYP1A2 IC50 (half-maximal inhibitory concentration) (human CYP1A2): Inactive; AC50 (human CYP2C9): 53.2 µM; AC50 (human CYP2C19): 36.6 µM; CYP2D6 Efficacy (human CYP2D6): 0.57 ± 0.14 (-105 ± 2) %; AC50 (CYP3A4): 40.9 µM; CYP3A4 IC50 (half-maximal inhibitory concentration) (CYP3A4): 40.89 ± 0 (145 ± 9) µM |
| O=S(=O)([O-])C(F)(F)C(F)(F)C(F)(F)C(F)(F)C(F)(F)C(F)(F)C(F)(F)C(F)(F)F.[Li+] [Lithium perfluorooctane sulfonate] | Inactive |  | 0.48 µM | 86.1 µM |  |  | CYP1A2 IC50 (half-maximal inhibitory concentration) (human CYP1A2): Inactive; CYP2D6 IC50 (half-maximal inhibitory concentration) (human CYP2D6): Inactive; CYP3A4 IC50 (half-maximal inhibitory concentration) (CYP3A4): Inactive |
| Cc1[nH]cnc1C[C@H]1CCc2c(C)c3ccccc3n2C1=O.Cl [Fabesetron hydrochloride] | Inactive | 1.56 µM |  | 1.67 µM |  | 1.89 µM | CYP2C9 Efficacy (human CYP2C9): 0.51 ± 0.09 (-90 ± 4) %; CYP2D6 Efficacy (human CYP2D6): 3.52 ± 0.74 (-103 ± 4) % |
| CCCCCCCC[N+](C)(CCCCCCCC)CCCCCCCC.O=S(=O)([O-])C(F)(F)F | Inactive | 47.6 µM | 28.3 µM | 12.9 µM | 0.19 µM | 3.7 µM |  |
| CC(=O)CCc1ccc2c(c1)OCO2 [Piperonyl acetone] | Inactive | 0.75 µM |  | 29.9 µM |  | 18.5 µM | CYP2C9 Efficacy (human CYP2C9): 22.26 ± 9.54 (-102 ± 10) %; CYP2D6 Efficacy (human CYP2D6): 44.96 ± 16.37 (-42 ± 9) % |
